Experimental data from patent publication US10426818B2, “Method and pharmaceutical composition for use in the treatment of diabetes” (INSERM (INSITUT NATIONAL DE LA SANTE ET DE LA RECHERCHE …, priority 2015, dated 2019).
Like-named read-outs stand apart in the source and are kept apart here.

Test system: overweighed healthy volunteers
Conditions: for ΔGIR (difference in Glucose Infusion Rate): single 2 hours continuous intravenous infusion, 8 volunteers
Method: This trial is a Phase 1, exploratory, monocentric, placebo-controlled, double blinded, crossover study.
Two groups of 8 male, overweighed (BMI 25-30 kg/m^2) healthy volunteers were included in this study.
The first 8 volunteers were included in the low dose group.
The next 8 volunteers were included in the high dose group.
Euglycemic Hyperinsulinemic Clamp Technique • Insulin (Actrapid®, NovoNordisk, Copenhagen, Denmark) was perfused for 4 hours at a constant supra-physiological rate (1 mU·Kg-1·min-1) resulting in the complete inhibition of hepatic glucose production. • Blood glucose level was measured every 5 min and maintained for 4 hours at a constant physiological value (5 mmol/l) adapting the rate of infusion of a 20% glucose solution.
The primary endpoint (deltaGIR) was the difference between the GIR measured during the steady state ending the “investigational product” perfusion phase (GIRperfusion) and the GIR measured during the steady state ending the “basal” phase (GIRbasal). Delta GIR=GIRperfusion−GIRbasal

## (pyr1)-Apelin-13
9 nmol/kg intravenous, p=0.06
  change in ΔGIR versus placebo (in words): non-significant increase
9 nmol/kg, p=0.06 versus placebo
  ΔGIR (difference in Glucose Infusion Rate): +2.21±0.54 mg/kg/min
30 nmol/kg intravenous, p=0.03
  insulin sensitivity versus placebo (in words): significant improvement
30 nmol/kg, p=0.03 versus placebo
  ΔGIR (difference in Glucose Infusion Rate): +1.72±0.47 mg/kg/min
